In article PMC8395125, “Conjugation with Phospholipids as a Modification Increasing Anticancer Activity of Phenolic Acids in Metastatic Melanoma—In Vitro and In Silico Studies” (International Journal of Molecular Sciences, 2021):

Columns and labels:
[1] = test system: 451-Lu metastatic melanoma cells; assay: MTT cell viability assay, 451-Lu; assay type: cell-based, human; details: Homo sapiens, 451Lu; MTT, 72 h, 50 to 400 μM, mean ± SD
Excerpt: (§1) Three malignant melanoma cell lines (Me45, 1205-Lu and 451-Lu; obtained from the collection of the Centre of Oncology, Gliwice, Poland), neonatal human dermal fibroblast (NHDF; Lonza, Basel, Switzerland) and human colorectal adenocarcinoma cells (Caco-2; ATCC, Manassas, VA, USA) were used in the studies. The human malignant melanoma (Me45) cell line (derived from a lymph node metastasis of skin melanoma) was established in 1997 at the Radiobiology Department of the Centre of Oncology in Gliwice. 1205-Lu and 451-Lu cell lines were derived from human melanoma metastases to lungs of immunodeficient mice. The cells were cultivated in the medium DMEM-F12 (PAA, Warsaw, Poland) supplemented with 10% (for Me45, 1205-Lu and 451-Lu and NHDF) or 20% (Caco-2) of fetal bovine serum (FBS, Eurx, Gdansk, Poland). In addition, medium for Caco-2 cells contained Non-essential Amino Acid Solution (1×) (Sigma-Aldrich, Poznan, Poland). All cell lines were grown in the presence of 1% of antibiotics (10,000 μg/mL streptomycin and 10,000 units/mL penicillin; Sigma-Aldrich, Poznan, Poland), at 37 °C in humidified atmosphere with 5% CO2 under standard conditions. All experimental procedures were carried out in log-phase of cell growth. During some experiments melanoma cells were irradiated with X-rays at the dose of 2 Gy at the 24th hour of the incubation. Ionizing radiation was applied using a laboratory X-Cell 140 irradiator (Kubtec, Bridgeport, CT, USA).
(§2) Cells (Me45, 1205-Lu, 451-Lu and NHDF) were seeded on 96-well plates (20,000 cells/mL) 24 h before the experiment. One day later, fresh media containing tested compounds were added. The appropriate control, containing ethanol:DMSO (v/v 1:1) in fresh medium, was also prepared. The plates were incubated for a given time (72 h for Me45, 1205-Lu, 451-Lu and NHDF; 2 h for Caco-2) at 37 °C in humidified atmosphere with 5% CO2. After incubation, the medium was removed and cells were washed with physiological saline (PBS; PAA, Warsaw, Poland). In the next step, the cells were incubated with MTT (3-[4,5-dimethylthiazol-2-yl]-2,5-diphenyltetrazolium bromide, Sigma-Aldrich, Poznan, Poland) (solution of 0.5 mg/mL in RPMI 1640 without phenol red) for 2 h. Then, the MTT solution was removed and the formazan crystals were dissolved in the mixture isopropanol:HCl (v/v 1:0.04; both purchased from Sigma-Aldrich, Poznan, Poland). The absorbance of the obtained product was read at 570 nm using a microplate reader (Epoch; BioTek, Winooski, VT, USA). Survival rate was expressed as the percentage of cell survival and calculated from the ratio (A570 of treated cells/A570 of control cells) × 100%. The experiments were repeated three times.

[2] = test system: 1205-Lu metastatic melanoma cells; assay: MTT cell viability assay, 1205-Lu; assay type: cell-based, human; details: Homo sapiens, 1205Lu; MTT, 72 h, 50 to 400 μM, mean ± SD
Excerpt: as §1, §2

[3] = test system: Me45 metastatic melanoma cells; assay: MTT cell viability assay, Me45; assay type: cell-based, human; details: Homo sapiens; MTT, 72 h, 50 to 400 μM, mean ± SD
Excerpt: as §1, §2

[4] = test system: normal skin fibroblasts NHDF; assay: MTT cell viability assay, NHDF; assay type: cell-based, human; details: Homo sapiens, MTT, 72 h, 50 to 400 μM, mean ± SD
Excerpt: as §1, §2

[5] = test system: 451-Lu melanoma cells; assay: Intracellular ROS formation (DCFH-DA, flow cytometry), 451-Lu; assay type: cell-based, human; details: 72 h, DCF fluorescence
Experimental: (§3) The experiments on ROS content were performed after 72 h of incubation with the given compounds. The cells were harvested and centrifuged (1500 rpm, 3 min), washed with PBS and centrifuged again. The pellet was resuspended in culture medium and a cell-permeable non-fluorescent probe 2′,7′-dichlorofluorescin diacetate (DCFH-DA, Sigma-Aldrich, Poznan, Poland) at a final concentration of 30 µM was added. The samples were incubated in darkness for 30 min at 37 °C, then stored on ice till they were measured. DCFH-DA is hydrolyzed by cellular esterases into its polar form DCFH. Due to the intracellular ROS and other peroxides, DCFH undergoes oxidation and turns into highly fluorescent compond 2′,7′-dichlorofluorescein (DCF).
(§4) Cytometric analyses were performed immediately using an Aria III flow cytometer (Becton Dickinson, Franklin Lakes, NJ, USA) with FITC configuration (488 nm excitation; emission, LP mirror 503, BP filter 530/30) or with PE configuration (547 nm excitation; emission, 585 nm) and at least 10,000 cells were counted.

[6] = test system: Me45 melanoma cells; assay: Intracellular ROS formation (DCFH-DA, flow cytometry), Me45; assay type: cell-based, human; details: Me45, 72 h, DCF fluorescence
Experimental: as §3, §4

[7] = test system: 1205-Lu melanoma cells; assay: Intracellular ROS formation (DCFH-DA, flow cytometry), 1205-Lu; assay type: cell-based, human; details: 72 h, DCF fluorescence
Experimental: as §3, §4

[8] = test system: 451-Lu cells; assay: Cell cycle analysis (PI, flow cytometry), 451-Lu; assay type: cell-based, human; details: 100 µM, 72 h, vs untreated control
Experimental: (§5) For cell cycle analysis, harvested cells were centrifuged (1500 rpm, 3 min). After supernatant removal, cells were fixed with a hypotonic buffer, containing PI at 100 µg/mL in PBS, 5 mg/l of citric acid, 1:9 Triton-X solution, 100 µg/mL of RNase in PBS (Sigma-Aldrich, Poznan, Poland). Probes were incubated for 20 min at room temperature in the dark, then stored on ice till they were measured.
as §4

[9] = test system: Me45 cells; assay: Cell cycle analysis (PI, flow cytometry), Me45; assay type: cell-based, human; details: Me45, 100 µM, 72 h, vs untreated control
Experimental: as §5, §4

[10] = test system: 451-Lu cells; assay: Annexin-V/PI apoptosis assay, 451-Lu; assay type: cell-based, human; details: 100 µM, 72 h
Experimental: (§6) The studies of cell cycle, apoptosis and intracellular level of ROS were performed using the flow cytometry method. For the apoptosis assay, the cells were harvested and centrifuged (1500 rpm, 3 min). The apoptosis was measured using an Annexin-V apoptosis assay (BioLegend, San Diego, CA, USA). After supernatant removal, the cells were washed with PBS and centrifuged again. The pellets of cells were suspended in 50 μL of cold Annexin-V binding buffer and stained with FITC-labeled Annexin-V for 30 min at 37 °C in the dark. The Annexin-V binding buffer and propidium iodide (PI) solution (100 μg/mL; Sigma-Aldrich, Poznan, Poland) were then added and the samples were stored on ice till they were measured.
as §4

[11] = test system: 1205-Lu cells; assay: Annexin-V/PI apoptosis assay, 1205-Lu; assay type: cell-based, human; details: 100 µM
Experimental: as §6, §4

[12] = test system: Me45 cells; assay: Annexin-V/PI apoptosis assay, Me45; assay type: cell-based, human; details: Me45, 100 µM, 72 h
Experimental: as §6, §4

[13] = test system: colon cancer cells; set-up: method as in PMID 30104549; details: cited from earlier work

Structure (SMILES): COc1ccc(C(=O)OC[C@H](COP(=O)([O-])OCC[N+](C)(C)C)OC(=O)c2ccc(OC)c(OC)c2)cc1OC [3b, 1,2-diveratroyl-sn-glycero-3-phosphocholine]
- IC50 [1]: 48.3 ± 5.5 µM
- IC50 [2]: 153 ± 9.5 µM
- IC50 [3]: 84.4 ± 14 µM
- IC50 [4]: 168 ± 11.3 µM
- reactive oxygen species formation (antioxidant activity, words) [5]: highest ability to reduce ROS formation
- reactive oxygen species formation (antioxidant activity, words) [6]: highest ability to reduce ROS formation
- reactive oxygen species formation (antioxidant activity, words) [7]: highest ability to reduce ROS formation
- cell cycle phase distribution [8]: increased the fraction of melanoma cells in the sub-G1 phase
- cell cycle phase distribution [9]: increased the fraction of Me45 cells in the sub-G1 as well as G2/M phases
- fraction of necrotic cells [10]: significant increase in the fraction of necrotic cells
- induction of apoptosis [10]: significant potency to induce apoptosis
- fraction of cells in the early stage of apoptosis ([11]; 48 h of incubation, without irradiation): ~ 22%
- fraction of necrotic cells ([11]; 72 h): significant increase in the fraction of necrotic cells
- induction of apoptosis ([11]; 72 h): significant potency to induce apoptosis
- induction of apoptosis [12]: significant potency to induce apoptosis
- overcoming of doxorubicin-resistance [13]: partially overcome doxorubicin-resistance
